Measured values reported in patent EP0492113A2, “Herbicide resistant AHAS deletion mutants” (priority 1990, dated 1992).
Values joined by “and” are separate entries in the source; they are usually repeats but may differ in a detail not shown here. Identical values can stand only once.

How the values were obtained:
[1] = molecular target: T1, Wild type Arabidopsis AHAS (Arabidopsis thaliana, UniProt P17597); assay: AHAS enzyme assay (expression in E. coli MF2000), wild type enzyme; type: biochemical; conditions: wild type (pAC201); Figures 4 and 5
T1 construct: made in house; host or cells: E. coli MF2000 (no endogenous AHAS), vector pKK233-2; ammonium sulfate fraction of the extract
T1 sequence (P17597 56-670): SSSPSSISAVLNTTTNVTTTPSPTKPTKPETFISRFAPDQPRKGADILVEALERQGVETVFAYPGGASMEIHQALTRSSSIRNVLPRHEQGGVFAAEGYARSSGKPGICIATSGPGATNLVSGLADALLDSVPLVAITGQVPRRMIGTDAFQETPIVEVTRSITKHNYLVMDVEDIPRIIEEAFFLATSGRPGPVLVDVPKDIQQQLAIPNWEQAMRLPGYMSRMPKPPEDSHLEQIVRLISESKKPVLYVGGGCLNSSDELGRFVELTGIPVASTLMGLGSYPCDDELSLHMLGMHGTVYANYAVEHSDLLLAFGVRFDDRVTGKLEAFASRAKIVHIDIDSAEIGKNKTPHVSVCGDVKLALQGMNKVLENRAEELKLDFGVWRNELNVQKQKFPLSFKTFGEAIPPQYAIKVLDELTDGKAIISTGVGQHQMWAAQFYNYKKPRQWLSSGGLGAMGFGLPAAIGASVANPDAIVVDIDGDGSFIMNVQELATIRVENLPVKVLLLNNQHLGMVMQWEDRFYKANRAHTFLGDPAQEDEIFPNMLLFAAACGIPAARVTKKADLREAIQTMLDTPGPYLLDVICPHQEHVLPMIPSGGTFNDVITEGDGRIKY
Procedure: AHAS enzyme assay (expression in E. coli) - The site directed mutants, pAC224 and pAC225, are utilized as templates for the generation of an E. coli based expression system. The insensitivity to herbicide is tested when the higher plant gene of interest is expressed in a bacterial strain devoid of any endogenous AHAS activity. To this end, the Nco1/Pst1 fragment of wild type Arabidopsis AHAS (pAC301), the Trp574-Leu substitution (pAC224) and the Trp574 deletion (pAC225) are subcloned into the Nco1/Pst1 site of the E. coli expression vector, pKK233-2 (purchased from Pharmacia). This expression plasmid contains an IPTG inducible promoter as well as a transcription termination sequence. Both regions surround an Nco1, HindIII and Pstl linker sequence that allows proper orientation of the gene of interest in relation to the bacterial promoter. Subcloning and ligation of the respective Ncol/Pstl fragments into Ncol/Pstl digested pKK233-2 DNA (ampicillin resistance) is as previously described. […] This bacterial strain is devoid of endogenous AHAS activity. Therefore, growth on a minimal media lacking isoleucine and valine (the end products of amino acid biosynthetic pathway of which the AHAS enzyme is involved) in an MF2000 strain transformed with either pAC224 (Trp574-Leu) or pAC225 (Trp del) requires the expression and function of the Arabidopsis gene in E. coli. […]

[2] = molecular target: T2, Arabidopsis AHAS Trp574 deletion (pAC225) (Arabidopsis thaliana, UniProt P17597, DEL574-574); type: biochemical; conditions: increasing concentrations of herbicide, Figures 4 and 5
T2 construct: made in house; host or cells: E. coli MF2000, vector pKK233-2
Procedure: (§1) AHAS enzyme assay (expression in E. coli) - The site directed mutants, pAC224 and pAC225, are utilized as templates for the generation of an E. coli based expression system. The insensitivity to herbicide is tested when the higher plant gene of interest is expressed in a bacterial strain devoid of any endogenous AHAS activity. To this end, the Nco1/Pst1 fragment of wild type Arabidopsis AHAS (pAC301), the Trp574-Leu substitution (pAC224) and the Trp574 deletion (pAC225) are subcloned into the Nco1/Pst1 site of the E. coli expression vector, pKK233-2 (purchased from Pharmacia). This expression plasmid contains an IPTG inducible promoter as well as a transcription termination sequence. Both regions surround an Nco1, HindIII and Pstl linker sequence that allows proper orientation of the gene of interest in relation to the bacterial promoter. Subcloning and ligation of the respective Ncol/Pstl fragments into Ncol/Pstl digested pKK233-2 DNA (ampicillin resistance) is as previously described. The ligation reaction is transformed into the E. coli strain, MF2000 [ilvB800:mu-1, Bg132, ilvI15, thi-1, argE3, RPSL31, (ara-leu, iIvHI) 863, mtl-1, xyl-5 galK2, lacYI, recAl]. This bacterial strain is devoid of endogenous AHAS activity. […]

[3] = molecular target: T3, Arabidopsis AHAS Trp574-Leu substitution (pAC224) (Arabidopsis thaliana, UniProt P17597, W574L); type: biochemical; conditions: increasing concentrations of herbicide, Figures 4 and 5
T3 construct: made in house; host or cells: E. coli MF2000, vector pKK233-2
Procedure: as §1

[4] = molecular target: T4, AHAS produced by substitution of asparagine for serine at position 653 (pAC229) (Arabidopsis thaliana, UniProt P17597, S653N); type: biochemical; conditions: Ser653 to asparagine substitution; Figure 6
T4 construct: made in house; host or cells: E. coli MF2000

[5] = molecular target: T5, AHAS produced by the Ser653 deletion (pAC230) (Arabidopsis thaliana, UniProt P17597, DEL653-653); type: biochemical; conditions: Figures 6 and 7
T5 construct: made in house; host or cells: E. coli MF2000

[6] = molecular target: T6, Trp574-->Leu substitution mutant allele of the Arabidopsis AHAS (Arabidopsis thaliana, UniProt P17597, W574L); assay: AHAS enzyme assay (leaf tissue) of tobacco transformants 33-1 and 46-2; type: biochemical; conditions: leaf extracts of kanamycin resistant transformants 33-1 and 46-2
T6 construct: expressed in transfected cells; host or cells: leaf tissue of transgenic tobacco (Wisconsin 38 background), Agrobacterium LBA4404 / pBIN19 with the 5.5 kb XbaI genomic fragment
Procedure: (§2) AHAS enzyme assay (leaf tissue) - Shortly after transfer to the greenhouse, extracts each of the kanamycin resistant transformants are prepared and assayed for insensitivity to the imidazolinone Pursuit® herbicide. Acetohydroxyacid synthase is extracted and assayed as described in the previous section. […] This Trp574 deletion transformant is selfed and backcrossed to Wisconsin 38.
(§3) The extraction and assay for Arabidopsis AHAS in bacterial cells is essentially as described by Singh, et. al. (J. Chromatography 444: 251-261, 1988). The bacterial pellet is powered in liquid nitrogen and homogenized in 100mM potassium phosphate buffer (pH 7.5) containing 10mM pyruvate, 5mM magnesium chloride, 5mM Na₂-EDTA, 100um flavin adenine dinucleotide (FAD), 1mM valine, 1mM leucine, 10%(v/v) glycerol and 10mM cysteine. The homogenate is filtered through a nylon cloth (53uM mesh) and centrifuged at 25,000 x g for 20 minutes. The supernatant fraction is brought to 50% saturation with respect to ammonium sulfate and allowed to stand for 20-30 minutes on ice. […]
(§4) AHAS activity in the presence or absence of herbicide is measured by estimation of the product, acetolactate, after conversion by acid decarboxylation to acetoin. […] The acetoin formed is determined by incubating with creatine (0.17%) and 1-naphthol (1.7%) by the method of Westerfeld (J. Biol. Chem. 161: 495-502, 1945). […]

[7] = molecular target: T7, mutant Arabidopsis AHAS allele having the Trp574 deletion (Arabidopsis thaliana, UniProt P17597, DEL574-574); assay: AHAS enzyme assay (leaf tissue) of tobacco deletion transformant 10-1; type: biochemical; conditions: leaf extract of kanamycin resistant deletion transformant 10-1
T7 construct: expressed in transfected cells; host or cells: leaf tissue of transgenic tobacco plant 10-1, Agrobacterium LBA4404 / pBIN19 with the 5.5 kb XbaI genomic fragment
Procedure: as §2, §3, §4

[8] = system: Wisconsin 38[W38] wild-type herbicide sensitive tobacco cultivar; assay: Postemergence spray of tobacco, susceptible control; type: in vivo; conditions: for plant growth: 25 days after spraying, Figure 2(a); for Tobacco Mean FW: (5 reps each): Control, four and one-half weeks
Text: (§5) All three photographs were taken 25 days after spraying. In all photographs, control plants (a wild-type herbicide sensitive tobacco cultivar, Wisconsin 38[W38]) are in the front row. • (a) W38 Control and 10-1 Self - W38 represents the control and 10-1 the selfed transgenic tobacco progeny. At 0 g/ha Pursuit®, both the W38 and the 10-1 look similar. […] 0 x 10-1 represents W38 as the maternal parent (0) and 10-1 as the paternal parent. The results are very similar to that seen in the 10-1 selfed photograph. • (c) W38 Control and 10-1 x 0 - W38 as previously described. 10-1 x 0 represents 10-1 as the maternal parent and W38 as the paternal parent (0). The results are very similar to that seen in the 10-1 selfed photograph except that in this photo segregation of the herbicide resistance trait can be seen in the 10-1 progeny.
(§6) In a more quantitative assay, seed of selfed progeny of the transgenic tobacco plant (10-1) containing the Trp574 deletion mutation of Arabidopsis AHAS as well as seeds of the susceptible parental cultivar "Wisconsin 38" are planted in Metro Mix 350™ in 5" Azalea pots. The seedlings are thinned to the single most vigorous seedling after 2 days. Eleven days later, these plants are sprayed postemergence with Pursuit® at 0, 10, 20, 40, 80 and 160 g/ha. Five plants of each tobacco type (transgenic and control) are sprayed per herbicide rate. Tween 20™ is added at 0.25 v/v to the herbicide solutions prior to spraying. The herbicide is applied with a laboratory belt sprayer at a rate of 400 L/ha at a distance 18" above the plants with a belt speed of 8.2 sec/rev and sprayer nozzle #65015E. Plant heights are measured 1, 2, 3, and 4 weeks after treatment, plant fresh weight data is collected at four and one-half weeks.

[9] = system: selfed progeny of the transgenic tobacco plant (10-1) containing the Trp574 deletion mutation of Arabidopsis AHAS; assay: Postemergence spray of tobacco, selfed progeny of transgenic plant 10-1; type: in vivo; conditions: for plant growth: 25 days after spraying, Figure 2(a); for Tobacco Mean FW: (5 reps each): Transgenic Progeny, four and one-half weeks
Text: as §5, §6

[10] = system: W38 (wild-type); assay: Tobacco seed assay on herbicide medium, W38; type: in vivo; conditions: after three weeks
Procedure: (§7) Seeds resulting from transgenic plant 10-1 are also assayed for resistance to the imidazolinone Pursuit®. Seeds are plated onto medium containing Pursuit® at 0, 1.25, 2.5, 3.75, and 5.0 µM. Twenty seeds are plated per petri dish, with two dishes per treatment. Herbicide tolerance of seedlings is evaluated after three weeks. […]

[11] = system: 10-1 Selfed; assay: Tobacco seed assay on herbicide medium, 10-1 selfed; type: in vivo; conditions: 5 µM in medium; twenty seeds per dish; after three weeks
Procedure: as §7

[12] = system: 10-1 x 0; assay: Tobacco seed assay on herbicide medium, 10-1 x 0; type: in vivo; conditions: 5 µM in medium; twenty seeds per dish; after three weeks
Procedure: as §7

[13] = system: 0 x 10-1; assay: Tobacco seed assay on herbicide medium, 0 x 10-1; type: in vivo; conditions: 5 µM in medium; twenty seeds per dish; after three weeks
Procedure: as §7

[14] = 5 µM in medium, twenty seeds per dish

T6 sequence (P17597 56-670 W574L): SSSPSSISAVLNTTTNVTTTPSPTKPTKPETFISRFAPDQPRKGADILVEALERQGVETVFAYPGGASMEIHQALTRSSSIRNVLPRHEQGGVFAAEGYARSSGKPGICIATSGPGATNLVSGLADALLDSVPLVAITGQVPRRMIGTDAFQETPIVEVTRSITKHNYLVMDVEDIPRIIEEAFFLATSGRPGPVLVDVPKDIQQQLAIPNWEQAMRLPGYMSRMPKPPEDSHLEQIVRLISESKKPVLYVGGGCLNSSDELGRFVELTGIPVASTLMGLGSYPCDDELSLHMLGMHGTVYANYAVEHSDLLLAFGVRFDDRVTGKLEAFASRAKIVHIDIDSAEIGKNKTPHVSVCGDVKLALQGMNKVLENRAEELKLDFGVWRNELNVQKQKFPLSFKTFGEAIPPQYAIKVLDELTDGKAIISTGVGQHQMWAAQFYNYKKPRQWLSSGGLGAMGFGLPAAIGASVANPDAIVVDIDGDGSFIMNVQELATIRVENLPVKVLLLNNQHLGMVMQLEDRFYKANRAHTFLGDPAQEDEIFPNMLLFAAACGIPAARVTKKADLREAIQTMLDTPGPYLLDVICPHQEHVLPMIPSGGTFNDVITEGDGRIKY
T3 sequence (P17597 56-670 W574L): as above
T2 sequence (P17597 other isoform, or with tags, fused parts or gaps DEL574-574): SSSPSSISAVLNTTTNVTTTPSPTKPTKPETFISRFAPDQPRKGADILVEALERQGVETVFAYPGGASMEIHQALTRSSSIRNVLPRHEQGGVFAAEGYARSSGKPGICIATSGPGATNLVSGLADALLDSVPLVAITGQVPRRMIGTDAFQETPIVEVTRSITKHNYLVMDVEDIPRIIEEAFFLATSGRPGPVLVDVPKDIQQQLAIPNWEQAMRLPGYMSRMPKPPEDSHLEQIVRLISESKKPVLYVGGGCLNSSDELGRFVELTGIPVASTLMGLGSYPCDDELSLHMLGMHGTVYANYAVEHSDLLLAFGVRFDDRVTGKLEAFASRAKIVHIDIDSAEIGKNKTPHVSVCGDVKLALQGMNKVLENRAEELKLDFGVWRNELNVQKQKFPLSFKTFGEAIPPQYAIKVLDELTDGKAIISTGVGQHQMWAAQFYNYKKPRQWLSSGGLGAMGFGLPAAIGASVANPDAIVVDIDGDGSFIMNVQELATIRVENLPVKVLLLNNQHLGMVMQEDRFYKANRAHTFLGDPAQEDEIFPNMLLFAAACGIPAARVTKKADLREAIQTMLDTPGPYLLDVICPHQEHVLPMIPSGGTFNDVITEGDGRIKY
T7 sequence (P17597 other isoform, or with tags, fused parts or gaps DEL574-574): as above
T5 sequence (P17597 other isoform, or with tags, fused parts or gaps DEL653-653): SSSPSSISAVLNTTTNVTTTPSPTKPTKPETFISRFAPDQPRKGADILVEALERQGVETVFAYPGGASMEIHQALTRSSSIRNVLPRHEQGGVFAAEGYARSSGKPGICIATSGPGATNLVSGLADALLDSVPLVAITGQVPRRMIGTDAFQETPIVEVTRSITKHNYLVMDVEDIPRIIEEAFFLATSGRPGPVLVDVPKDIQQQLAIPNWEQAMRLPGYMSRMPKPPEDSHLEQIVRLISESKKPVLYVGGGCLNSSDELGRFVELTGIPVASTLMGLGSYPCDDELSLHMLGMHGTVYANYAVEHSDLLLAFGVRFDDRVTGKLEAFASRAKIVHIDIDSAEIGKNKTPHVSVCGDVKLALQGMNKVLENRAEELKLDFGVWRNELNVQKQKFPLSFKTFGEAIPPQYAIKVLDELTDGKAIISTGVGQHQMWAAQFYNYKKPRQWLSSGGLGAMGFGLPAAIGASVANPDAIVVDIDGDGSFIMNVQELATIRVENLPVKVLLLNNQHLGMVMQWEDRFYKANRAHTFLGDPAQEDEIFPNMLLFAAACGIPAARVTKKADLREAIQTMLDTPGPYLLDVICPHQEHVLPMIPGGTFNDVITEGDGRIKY
T4 sequence (P17597 56-670 S653N): as the sequence (P17597 56-670 W574L) above, with L519W, S598N counted along it

CCc1cnc(C2=NC(C)(C(C)C)C(=O)N2)c(C(=O)O)c1 (stereo not drawn) [Pursuit®]
sensitivity of AHAS enzyme to herbicide [1]: sensitive | sensitivity of AHAS enzyme to herbicide [2]: insensitive | sensitivity of AHAS enzyme to herbicide [3]: insensitive | sensitivity of AHAS enzyme to herbicide [4]: insensitive to inhibition | sensitivity of AHAS enzyme to herbicide [5]: highly resistant to inhibition | AHAS activity in the presence of herbicide [6]: exhibit AHAS activity | AHAS activity on addition of herbicide [7]: exhibits insensitivity | plant growth ([8]; 10 g/ha post-emergence, compared to 10-1): slightly inhibited | Tobacco Mean FW: (5 reps each) ([8]; 10 g/ha postemergence): 8.1 g | Tobacco Mean FW: (5 reps each) ([8]; 20 g/ha postemergence): 2.0 g | Tobacco Mean FW: (5 reps each) ([8]; 40 g/ha postemergence): 0.8 g | Tobacco Mean FW: (5 reps each) ([8]; 80 g/ha postemergence): 0.6 g | Tobacco Mean FW: (5 reps each) ([8]; 160 g/ha postemergence): 0.2 g | herbicide tolerance, applied postemergence ([8]; any of the rates tested (10 to 160 g/ha)): does not display herbicide tolerance | plant growth ([8]; starting at 20 g/ha post-emergence): almost completely inhibited | plant growth ([9]; 80 g/ha post-emergence): slightly inhibited | plant growth ([9]; 160 g/ha post-emergence): clearly inhibited | Tobacco Mean FW: (5 reps each) ([9]; 10 g/ha postemergence): 36.4 g | Tobacco Mean FW: (5 reps each) ([9]; 20 g/ha postemergence): 28.8 g | Tobacco Mean FW: (5 reps each) ([9]; 40 g/ha postemergence): 20.9 g | Tobacco Mean FW: (5 reps each) ([9]; 80 g/ha postemergence): 26.5 g | Tobacco Mean FW: (5 reps each) ([9]; 160 g/ha postemergence): 21.4 g | tolerance to post-emergence applications, relative to the concentration lethal to control tobacco plants ([9]; progeny from 10-1): 4-8 x | herbicide tolerance, applied postemergence ([9]; rates 10 to 160 g/ha): high degree of tolerance | D (Damaged), number of seedlings per dish [10, 14]: 0 | R (Resistant), number of seedlings per dish [10, 14]: 0 | S (Susceptible), number of seedlings per dish [10, 14]: 20 | herbicide tolerance of seedlings ([10]; control plants, lowest concentration, 1.25 µM in medium): exhibited herbicide sensitivity | D (Damaged), number of seedlings per dish [11]: 6 and 11 | R (Resistant), number of seedlings per dish [11]: 6 | D (Damaged), number of seedlings per dish [12]: 9 | R (Resistant), number of seedlings per dish [12]: 0 | S (Susceptible), number of seedlings per dish [12]: 11 | D (Damaged), number of seedlings per dish [13]: 9 and 8 | R (Resistant), number of seedlings per dish [13]: 0 | S (Susceptible), number of seedlings per dish [13]: 10 and 8
